Consider 3 compounds from patent US10969390B2, “Method for evaluating efficacy of chemoradiotherapy against squamous cell carcinoma” (NATIONAL CANCER CENTER, priority 2014, dated 2021).

The subject of experiment [1] is SIM2 stably expressing lines (KYSE510-SIM2-27 and -37, TE8-SIM2-2 and -3, T.Tn-SIM2-9 and -23) of esophageal squamous cell carcinoma cell lines. As to the kind of experiment: anticancer-agent sensitivity test of SIM2-gene stably expressing lines, two-dimensional culturing, viable cell count (trypan blue). Type of experiment: cell-based. Conditions: for sensitivities to anticancer agents of SIM2 stably expressing lines in comparison with control-vector introduced lines: two-dimensional culture, 3 days, CDDP 2, 5, 10 μM, 5-FU 10 μM, DTX 1 nM, versus KYSE510-Mock, TE8-Mock, T.Tn-Mock. The protocol: (§1) The SIM2 gene was introduced into TE8 obtained from RIKEN BRC and KYSE510 and T. Tn obtained from JCRB Cell Bank. The resultant was cultured in a medium containing 400 μg/ml of G-418 for approximately 2 weeks. The G418 resistant colonies were isolated and cultured. The SIM2 gene expression was confirmed by an RT-PCR method. Thus, SIM2-gene stably expressing lines were established. Cell lines in which only a GFP expression plasmid vector was introduced were prepared as control cell lines. To extract the total RNAs and evaluate the differentiation-inducing activities of the SIM2-gene stably expressing lines, the SIM2-gene stably expressing lines were each seeded into NanoCulture (registered trademark) Plate and then cultured with a normal medium for 3 days. The total RNA was extracted, and an RT-PCR method was performed. The cDNA was synthesized using SuperScript (registered trademark) III First-Strand Synthesis System for RT-PCR. The diluted cDNA was mixed with AccuPrime (registered trademark) Taq DNA Polymerase System (Invitrogen), primers, and nuclease-free water, and amplified using GeneAmp (registered trademark) PCR System 9700 (Applied Biosystems Inc.). The resultant was quantified and compared by agarose gel electrophoresis.
To evaluate the sensitivities of the SIM2-gene stably expressing lines to cisplatin (CDDP), 5-fluorouracil (5-FU), and docetaxel (DTX), an anticancer-agent sensitivity test was conducted. The SIM2-gene stably expressing lines were each seeded into a 6-well plate, cultured with a normal medium for 1 day, and then cultured with a normal medium or a medium supplemented with CDDP (2 μM, 5 μM, 10 μM), 5-FU (10 μM), or DTX (1 nM) for 3 days. After the chemical treatment was completed, the cells were collected using 0.25% trypsin/EDTA and stained with trypan blue. After that, the number of viable cells was counted.

The subject of experiment [2] is SIM2 stably expressing lines (T.Tn-SIM2-9 and -23). Nature of the experiment: cisplatin long-term sensitivity test of SIM2-gene stably expressing lines, three-dimensional culturing, viable cell count. Type of experiment: cell-based. Conditions: 14 days, CDDP 5×10^−6 M, T.Tn-SIM2-9 and -23 versus T.Tn-Mock. The protocol:
as §1, with “The diluted cDNA was mixed with AccuPrime (registered trademark) Taq DNA Polymerase System (Invitrogen), primers, and nuclease-free water, and amplified using GeneAmp (registered trademark) PCR System 9700 (Applied Biosystems Inc.).” left out
To evaluate the sensitivities of the SIM2-gene stably expressing lines to CDDP long-term administration, an anticancer-agent sensitivity test was conducted employing three-dimensional culturing. […] After that, the number of viable cells was counted.

Structures are written as SMILES.

On to `CC(=O)O[C@@]12CO[C@@H]1C[C@H](O)[C@@]1(C)C(=O)[C@H](O)C3=C(C)[C@@H](OC(=O)[C@H](O)[C@@H](NC(=O)OC(C)(C)C)c4ccccc4)C[C@@](O)([C@@H](OC(=O)c4ccccc4)[C@H]21)C3(C)C` [docetaxel], for which the “sensitivities to anticancer agents of SIM2 stably expressing lines in comparison with control-vector introduced lines” value (shortened to “sensitivities to anticancer agents”) in experiment [1] was “increased”.

`N.N.[Cl][Pt][Cl]` [cisplatin]: in experiment [1] (concentration near IC50, 3 days, FIG. 6), the “CDDP effect in 3 days (two-dimensional culturing)” value is listed as “significant but small”. Besides, the “sensitivities to anticancer agents” value in experiment [1] is listed as “increased”. Moreover, in experiment [2], the “sensitivities to CDDP of SIM2 stably expressing lines in comparison with control-vector introduced line” value is listed as “remarkably increased”.

Consider `O=c1[nH]cc(F)c(=O)[nH]1` [5-fluorouracil], for which the “sensitivities to anticancer agents” value in experiment [1] is recorded as “increased”.
